Test: Single oral dose pharmacokinetic study in dogs, varying the testosterone dose (Example 1)
Format: in vivo, dogs (female beagles)
Settings: for Average Serum Testosterone / concentration at 0.5 h / concentration at 1 h / concentration at 2 h / concentration at 4 h / concentration at 5 h / concentration at 6 h / concentration at 8 h / concentration at 24 h: single oral; for Average Serum Testosterone: time 0 h (pre-dose); for Sustained release time, Lipid Suspension Time: time serum levels fell between about 300 and 1100 ng/dl; for concentration at 0.5 h / concentration at 1 h / concentration at 2 h / concentration at 4 h / concentration at 5 h / concentration at 6 h / concentration at 8 h / concentration at 24 h: female, beagle, dog, serum
Protocol: A study using six dogs (female beagles) was made to obtain preliminary pharmacokinetic data following a single oral dose of the delivery system. The dogs were 13-24 months old, and weighed in the range of 10.4 to 13.2 kg.
The dosing was done in four sequential one day intervals with a minimum two day rest period in between each interval. Blood was drawn immediately before the dose was administered. […] The animals were given the placebo or test article, as described above, at approximately the same time each day, immediately prior to being fed. The dog ate its food within 30 minutes of the dose being administered.
Blood samples were collected pre-dose and at 0.5, 1, 2, 4, 5, 6, 8 and 24 hours post dosing. At each time point, a minimum of 3 mL whole blood (or minimum volume determined by assay requirement) were collected by venipuncture of the jugular vein into non-heparinized Vacutainer tubes. The blood was centrifuged to obtain serum, which was kept on ice until placed into an appropriately sized vial, and frozen at −70° C. The samples remained frozen until delivered on dry ice to the lab for analysis. The lab used radioimmunoassay to analyse for testosterone.
Determining the sustained release properties of the samples in Example 1 by evaluating the amount of time the blood serum levels fell between about 300 and 1100 ng/dl, the sustained release times for Example 1 are given in Table 3. It is desirable to have release properties that are fairly constant with time. It is undesirable to have sharp peaks or drops in serum concentration of the drug.

In the case of `C[C@]12CC[C@H]3[C@@H](CCC4=CC(=O)CC[C@@]43C)[C@@H]1CC[C@@H]2O` [Testosterone, testosterone], the “Average Serum Testosterone” value (dose 25 mg) is reported as 0 ng/dL, the “Sustained release time, Lipid Suspension Time” value (shortened to “Sustained release time”) (dose 25 mg) is reported as 1 h and the “Average Serum Testosterone” value (dose 50 mg) is reported as 1 ng/dL. The “Sustained release time” value (dose 50 mg) was 0 h, the “Average Serum Testosterone” value (dose 100 mg) was 0 ng/dL and the “Sustained release time” value (dose 100 mg) was 7 h. For the same molecule, the “Average Serum Testosterone” value (dose 250 mg) was 26 ng/dL, the “Sustained release time” value (dose 250 mg) was 7 h and the concentration at 0.5 h (dose 25 mg) was 2.86 ng/mL. The concentration at 1 h (dose 25 mg) was 3.9 ng/mL, the concentration at 2 h (dose 25 mg) was 4.25 ng/mL and the concentration at 4 h (dose 25 mg) was 1.18 ng/mL. For the same molecule, the concentration at 5 h (dose 25 mg) was 0.35 ng/mL, the concentration at 6 h (dose 25 mg) was 0.53 ng/mL and the concentration at 8 h (dose 25 mg) was 0.23 ng/mL. For the same molecule, the concentration at 24 h (dose 25 mg) was 0.01 ng/mL, the concentration at 0.5 h (dose 50 mg) was 1.54 ng/mL and the concentration at 1 h (dose 50 mg) was 2.86 ng/mL. It also gave a concentration at 2 h (dose 50 mg) of 3.76 ng/mL, a concentration at 4 h (dose 50 mg) of 2.88 ng/mL and a concentration at 5 h (dose 50 mg) of 2.15 ng/mL. It also gave a concentration at 6 h (dose 50 mg) of 1.07 ng/mL, a concentration at 8 h (dose 50 mg) of 0.54 ng/mL and a concentration at 24 h (dose 50 mg) of 0.07 ng/mL. The concentration at 0.5 h (dose 100 mg) was 2.7 ng/mL, the concentration at 1 h (dose 100 mg) was 3.09 ng/mL and the concentration at 2 h (dose 100 mg) was 4.5 ng/mL. For the same molecule, the concentration at 4 h (dose 100 mg) was 5.22 ng/mL, the concentration at 5 h (dose 100 mg) was 6.18 ng/mL and the concentration at 6 h (dose 100 mg) was 3.57 ng/mL. The concentration at 8 h (dose 100 mg) was 4.22 ng/mL, the concentration at 24 h (dose 100 mg) was 0.02 ng/mL and the concentration at 0.5 h (dose 250 mg) was 2.64 ng/mL. The concentration at 1 h (dose 250 mg) was 5.55 ng/mL, the concentration at 2 h (dose 250 mg) was 8.35 ng/mL and the concentration at 4 h (dose 250 mg) was 10.3 ng/mL. The concentration at 5 h (dose 250 mg) was 8.29 ng/mL, the concentration at 6 h (dose 250 mg) was 9.8 ng/mL and the concentration at 8 h (dose 250 mg) was 7.57 ng/mL. For the same molecule, the concentration at 24 h (dose 250 mg) was 0.08 ng/mL.

— US20040096498A1, “Oral pharmaceutical delivery system with improved sustained release” (priority 2002, published 2004)
